Experimental data from US12054498B2, “Heteroaromatic macrocyclic ether chemotherapeutic agents” (Nuvalent, Inc., priority 2020, dated 2024).

What was measured:
[1] = target: T1, Ba/F3 cells EML4-ALK L1196M/G1202R (variant 1) (Homo sapiens, UniProt Q9UM73, G1202R/L1196M); experiment: Ba/F3 cell proliferation assay, EML4-ALK L1196M/G1202R (variant 1); type: cell-based; conditions: 72 hours, CellTiter-Glo
T1 construct: echinoderm microtubule-associated protein-like 4 (EML4) gene and the ALK tyrosine kinase domain; host or cells: Ba/F3 (RIKEN), retroviral pMSCV-puro; the other entry of the earlier key: EML4 (Q9HC35, Echinoderm microtubule-associated protein-like 4)
T1 sequence (Q9UM73 with tags, fused parts or gaps L1196M/G1202R): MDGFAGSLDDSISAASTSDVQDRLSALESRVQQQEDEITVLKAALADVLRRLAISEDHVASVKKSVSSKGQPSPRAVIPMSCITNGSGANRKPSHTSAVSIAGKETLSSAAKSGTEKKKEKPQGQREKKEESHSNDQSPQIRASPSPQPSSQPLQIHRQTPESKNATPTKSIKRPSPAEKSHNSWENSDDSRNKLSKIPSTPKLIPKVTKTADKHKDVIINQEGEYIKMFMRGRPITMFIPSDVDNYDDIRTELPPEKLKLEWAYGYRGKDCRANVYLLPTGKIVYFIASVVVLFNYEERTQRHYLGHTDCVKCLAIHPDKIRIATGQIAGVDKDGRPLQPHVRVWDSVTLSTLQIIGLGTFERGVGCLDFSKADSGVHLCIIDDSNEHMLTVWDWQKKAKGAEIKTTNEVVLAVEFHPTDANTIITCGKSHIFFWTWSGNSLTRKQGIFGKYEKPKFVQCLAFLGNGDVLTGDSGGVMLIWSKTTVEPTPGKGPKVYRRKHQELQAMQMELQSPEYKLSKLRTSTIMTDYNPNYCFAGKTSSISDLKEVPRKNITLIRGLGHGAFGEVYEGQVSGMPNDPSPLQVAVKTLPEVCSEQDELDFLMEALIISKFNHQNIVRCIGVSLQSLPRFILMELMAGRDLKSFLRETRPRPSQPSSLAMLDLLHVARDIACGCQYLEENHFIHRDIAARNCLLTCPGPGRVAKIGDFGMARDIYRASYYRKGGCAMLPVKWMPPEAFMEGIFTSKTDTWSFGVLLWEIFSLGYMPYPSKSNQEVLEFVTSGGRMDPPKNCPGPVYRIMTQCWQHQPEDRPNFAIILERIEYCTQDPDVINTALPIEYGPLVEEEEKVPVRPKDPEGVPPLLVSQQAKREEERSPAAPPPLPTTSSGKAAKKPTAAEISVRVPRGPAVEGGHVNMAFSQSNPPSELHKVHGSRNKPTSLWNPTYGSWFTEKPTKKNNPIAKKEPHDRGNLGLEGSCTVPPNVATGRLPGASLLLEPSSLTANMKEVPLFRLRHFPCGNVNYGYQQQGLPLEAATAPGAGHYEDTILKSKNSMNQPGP
How it was run: (§1)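 Stable fusion-expressing Ba/F3 clones, 1,000 cells/well. Compounds for 72 h, CellTiter-Glo readout; IC50 by 4-parameter logistic regression.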

[2] = target: T2, ROS1-G2032R (Homo sapiens, UniProt P08922, G2032R); experiment: Biochemical kinase assay, ROS1-G2032R kinase domain; conditions: apparent inhibitory constant, Morrison equation; ATP 2 mM in substrate solution; read-out: ROS1-G2032R Ki^app
T2 construct: purchased SignalChem R14-12BG
T2 sequence (P08922 1945-2222 G2032R limits assumed): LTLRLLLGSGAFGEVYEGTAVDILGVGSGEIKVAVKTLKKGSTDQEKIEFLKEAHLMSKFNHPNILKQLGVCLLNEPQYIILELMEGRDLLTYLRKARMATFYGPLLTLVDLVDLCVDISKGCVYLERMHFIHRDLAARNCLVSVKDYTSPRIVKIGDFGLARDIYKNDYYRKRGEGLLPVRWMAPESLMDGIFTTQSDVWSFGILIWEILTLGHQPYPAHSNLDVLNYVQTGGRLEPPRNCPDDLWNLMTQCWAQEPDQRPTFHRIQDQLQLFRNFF
Procedure: (§2) First, 250 nL of compound dissolved in DMSO (100-fold of the desired concentration) was dispensed into a 384-well plate. A 12.5 μL substrate solution containing ATP (2 mM) and fluorogenic phosphorylation substrate AQT0101 (26 μM for ALK and ROS1, AssayQuant) or AQT0104 (26 μM for TRKA, AssayQuant) in buffer (50 mM HEPES pH 7.5, 0.01% Brij-35, 0.5 mM EGTA, 10 mM MgCl2) was added and mixed thoroughly. […] The plate was sealed and read by SpectraMax Paradigm at λ=485 nm every 2 minutes for 120 minutes at 30° C. Initial rates of reaction (v) were calculated from the change in fluorescence intensity over time during the initial, linear portion of the reaction. Finally, apparent inhibitory constants (Ki^app) were determined from regression of v and I (inhibitor concentration) to Morrison Equation (E=enzyme concentration): […]

[3] = target: T3, TRKA-wt (Homo sapiens, UniProt P04629); experiment: Biochemical kinase assay, TRKA-wt kinase domain; conditions: apparent inhibitory constant, Morrison equation; ATP 2 mM in substrate solution; read-out: TRKA-wt Ki^app
T3 construct: or TRKA-wt (1 nM, BPS Bio, 40280) kinase domains in buffer; purchased BPS Bio 40280
T3 sequence (P04629 510-781 limits assumed): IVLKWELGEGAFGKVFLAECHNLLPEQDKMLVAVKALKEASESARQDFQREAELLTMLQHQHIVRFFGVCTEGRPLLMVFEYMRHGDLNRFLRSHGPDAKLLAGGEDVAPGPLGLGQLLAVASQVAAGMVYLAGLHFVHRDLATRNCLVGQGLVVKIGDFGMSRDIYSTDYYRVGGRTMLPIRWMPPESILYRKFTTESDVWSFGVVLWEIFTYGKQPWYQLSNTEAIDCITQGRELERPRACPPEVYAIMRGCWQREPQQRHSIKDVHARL
Procedure: (§3) First, 250 nL of compound dissolved in DMSO (100-fold of the desired concentration) was dispensed into a 384-well plate. A 12.5 μL substrate solution containing ATP (2 mM) and fluorogenic phosphorylation substrate AQT0101 (26 μM for ALK and ROS1, AssayQuant) or AQT0104 (26 μM for TRKA, AssayQuant) in buffer (50 mM HEPES pH 7.5, 0.01% Brij-35, 0.5 mM EGTA, 10 mM MgCl2) was added and mixed thoroughly. Then, a 12.5 μL kinase solution containing ALK-wt (1.5 nM, Carna, 08-518), ALK ALK L1196M/G1202R (3 nM, SignalChem, A19-12NG), ROS1-wt (0.6 nM, Carna, 08-163), ROS1-G2032R (0.5 nM, SignalChem, R14-12BG), or TRKA-wt (1 nM, BPS Bio, 40280) kinase domains in buffer ([…] HEPES pH 7.5, 0.01% Brij-35, 2% glycerol, 0.4 mg/mL BSA, 0.5 mM EGTA, and 10 mM MgCl2) was added and mixed thoroughly. The plate was sealed and read by SpectraMax Paradigm at λ=485 nm every 2 minutes for 120 minutes at 30° C. Initial rates of reaction (v) were calculated from the change in fluorescence intensity over time during the initial, linear portion of the reaction. Finally, apparent inhibitory constants (Ki^app) were determined from regression of v and I (inhibitor concentration) to Morrison Equation (E=enzyme concentration): […]

[4] = target: T4, Ba/F3 cells EML4-ALK wt (variant 1) (Homo sapiens, UniProt Q9UM73); experiment: Ba/F3 cell proliferation assay, EML4-ALK wt (variant 1); type: cell-based; conditions: 72 hours, CellTiter-Glo
T4 construct: echinoderm microtubule-associated protein-like 4 (EML4) gene and the ALK tyrosine kinase domain; host or cells: Ba/F3 (RIKEN), retroviral pMSCV-puro; the other entry of the earlier key: EML4 (Q9HC35, Echinoderm microtubule-associated protein-like 4)
T4 sequence (Q9UM73 with tags, fused parts or gaps): as the sequence (Q9UM73 with tags, fused parts or gaps L1196M/G1202R) above, with M635L, R641G counted along it
How it was run: as §1

[5] = target: T5, ALK L1196M/G1202R (Homo sapiens, UniProt Q9UM73, G1202R/L1196M); experiment: Biochemical kinase assay, ALK L1196M/G1202R kinase domain; conditions: apparent inhibitory constant, Morrison equation; ATP 2 mM in substrate solution; read-out: ALK-L1196M-G1202R Ki^app
T5 construct: purchased SignalChem A19-12NG
T5 sequence (Q9UM73 1116-1392 L1196M/G1202R limits assumed): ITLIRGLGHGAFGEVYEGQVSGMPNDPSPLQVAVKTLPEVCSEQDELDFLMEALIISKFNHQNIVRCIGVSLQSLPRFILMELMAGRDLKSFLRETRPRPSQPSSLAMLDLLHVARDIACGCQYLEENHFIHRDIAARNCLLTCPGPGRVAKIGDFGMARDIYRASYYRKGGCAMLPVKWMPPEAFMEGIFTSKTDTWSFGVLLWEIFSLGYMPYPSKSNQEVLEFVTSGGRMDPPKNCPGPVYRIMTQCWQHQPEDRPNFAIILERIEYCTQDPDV
Procedure: as §3

[6] = target: T6, ROS1-wt (Homo sapiens, UniProt P08922); experiment: Biochemical kinase assay, ROS1-wt kinase domain; conditions: apparent inhibitory constant, Morrison equation; ATP 2 mM in substrate solution; read-out: ROS1-wt Ki^app
T6 construct: purchased Carna 08-163
T6 sequence (P08922 1945-2222 limits assumed): as the sequence (P08922 1945-2222 G2032R limits assumed) above, with R88G counted along it
Procedure: as §2

[7] = target: T7, ALK-wt (Homo sapiens, UniProt Q9UM73); experiment: Biochemical kinase assay, ALK-wt kinase domain; conditions: apparent inhibitory constant, Morrison equation; ATP 2 mM in substrate solution; read-out: ALK-wt Ki^app
T7 construct: purchased Carna 08-518
T7 sequence (Q9UM73 1116-1392 limits assumed): as the sequence (Q9UM73 1116-1392 L1196M/G1202R limits assumed) above, with M81L, R87G counted along it
Procedure: as §3

[8] = target: T8, Ba/F3 cells TPM3-TRKA (Homo sapiens, UniProt P04629); experiment: Ba/F3 cell proliferation assay, TPM3-TRKA; type: cell-based; conditions: 72 hours, CellTiter-Glo, read-out: TPM3-NTRK1-wt IC50
T8 construct: host or cells: Ba/F3 (RIKEN), retroviral pMSCV-puro; the other entry of the earlier key: TPM3 (P06753, Tropomyosin alpha-3 chain)
T8 sequence (P04629 510-796 limits assumed): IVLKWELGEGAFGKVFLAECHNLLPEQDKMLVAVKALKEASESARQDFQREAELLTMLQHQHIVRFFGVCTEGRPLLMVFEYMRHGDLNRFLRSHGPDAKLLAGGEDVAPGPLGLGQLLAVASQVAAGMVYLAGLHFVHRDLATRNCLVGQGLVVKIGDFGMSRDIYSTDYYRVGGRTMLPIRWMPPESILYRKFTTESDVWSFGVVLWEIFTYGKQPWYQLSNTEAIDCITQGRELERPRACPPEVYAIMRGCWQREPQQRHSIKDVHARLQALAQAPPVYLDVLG
How it was run: as §1

[9] = tested on: TPM3-NTRK1-wt IC50 / primary target IC50 (e.g. CD74-ROS1-wt); experiment: TRKA selectivity in Ba/F3 cells (TRKA potency divided by primary target potency); type: cell-based; conditions: for TPM3-NTRK1-wt/CD74-ROS1-G2032R selectivity ratio: TRKA potency / CD74-ROS1-G2032R potency; for TPM3-NTRK1-wt/CD74-ROS1-wt selectivity ratio: TRKA potency / CD74-ROS1-wt potency; for TPM3-NTRK1-wt/EML4-ALK-L1196M-G1202R selectivity ratio: TRKA potency / EML4-ALK-L1196M-G1202R potency; for TPM3-NTRK1-wt/EML4-ALK-wt selectivity ratio: TRKA potency / EML4-ALK-wt potency
Procedure: TRKA selectivity was calculated by dividing a compound's TRKA potency by its primary target potency (e.g. TPM3-NTRK1-wt IC50/CD74-ROS1-wt IC50). Compound selectivity can be interpreted by binning ratio values: bin A for very high selectivity, ratio >30-fold; bin B for high selectivity, ratio >10-fold; bin C for moderate selectivity, ratio ≥1; and bin D for low selectivity, ratio <1. […] (nd=not determined).

[10] = target: T9, Ba/F3 cells CD74-ROS1 wild-type (wt) (Homo sapiens, UniProt P08922); experiment: Ba/F3 cell proliferation assay, CD74-ROS1 wild-type; type: cell-based; conditions: 72 hours, CellTiter-Glo
T9 construct: fusion of the C-terminus of ROS1 with the N-terminus of various partner proteins; host or cells: Ba/F3 (RIKEN), retroviral pMSCV-puro; the other entry of the earlier key: CD74 (P04233, HLA class II histocompatibility antigen gamma chain)
T9 sequence (P08922 1883-2347 limits assumed): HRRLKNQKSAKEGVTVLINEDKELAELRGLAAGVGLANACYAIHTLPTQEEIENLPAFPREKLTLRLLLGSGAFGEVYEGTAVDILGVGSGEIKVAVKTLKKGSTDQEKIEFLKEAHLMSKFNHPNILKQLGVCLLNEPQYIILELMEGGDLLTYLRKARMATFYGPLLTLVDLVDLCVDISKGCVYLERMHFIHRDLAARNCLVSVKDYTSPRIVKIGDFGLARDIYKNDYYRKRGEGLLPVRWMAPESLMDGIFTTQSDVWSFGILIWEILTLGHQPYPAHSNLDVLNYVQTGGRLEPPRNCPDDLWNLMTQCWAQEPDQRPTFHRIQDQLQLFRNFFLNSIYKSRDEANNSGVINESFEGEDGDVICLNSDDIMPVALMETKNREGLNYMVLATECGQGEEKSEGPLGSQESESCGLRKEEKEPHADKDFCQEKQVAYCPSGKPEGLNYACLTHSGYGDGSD
How it was run: (§4)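 Viability read by CellTiter-Glo luminescence after 72 h exposure to 3-fold serial compound dilutions, four-parameter logistic fitting giving IC50.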

[11] = target: T10, Ba/F3 cells CD74-ROS1 G2032R (Homo sapiens, UniProt P08922, G2032R); experiment: Ba/F3 cell proliferation assay, CD74-ROS1 G2032R; type: cell-based; conditions: 72 hours, CellTiter-Glo
T10 construct: fusion of the C-terminus of ROS1 with the N-terminus of various partner proteins; host or cells: Ba/F3 (RIKEN), retroviral pMSCV-puro; the other entry of the earlier key: CD74 (P04233, HLA class II histocompatibility antigen gamma chain)
T10 sequence (P08922 1883-2347 G2032R limits assumed): as the sequence (P08922 1883-2347 limits assumed) above, with G150R counted along it
How it was run: as §4

| Structure (SMILES) | IC50 [1] [nM] | Ki [2] [nM] | Ki [3] [nM] | IC50 [4] [nM] | Ki [5] [nM] | Ki [6] [nM] | Ki [7] [nM] | IC50 [8] [nM] | TPM3-NTRK1-wt/CD74-ROS1-G2032R selectivity ratio [9] | TPM3-NTRK1-wt/CD74-ROS1-wt selectivity ratio [9] | TPM3-NTRK1-wt/EML4-ALK-L1196M-G1202R selectivity ratio [9] | TPM3-NTRK1-wt/EML4-ALK-wt selectivity ratio [9] | IC50 [10] [nM] | IC50 [11] [nM] |
| --- | --- | --- | --- | --- | --- | --- | --- | --- | --- | --- | --- | --- | --- | --- |
| CCn1ncc2c1-c1cnc(N)c(c1)O[C@H](C)c1cc(F)ccc1-c1ccnn1C2 [Example 1, (19R)-3-ethyl-16-fluoro-19-methyl-20-oxa-3,4,8,9,23-pentaazapentacyclo[19.3.1.0^2,^6.0^8,^12.0^13,^18]pentacosa-1(24),2(6),4,9,11,13,15,17,21(25),22-decaen-22-amine] | 50 to 500 | < 50 | 50 to 500 | 0.1 to 50 | < 50 | < 50 | < 50 | > 500 | A (bin A for very high selectivity, ratio >30-fold) | A (bin A for very high selectivity, ratio >30-fold) | B (bin B for high selectivity, ratio >10-fold) | A (bin A for very high selectivity, ratio >30-fold) | 0.1 to 50 | 0.1 to 50 |
| CCn1ncc2c1-c1cnc(N)c(c1)O[C@H](C)c1cc(F)ccc1-c1c(C#N)cnn1C2 [Example 3, (19R)-22-amino-3-ethyl-16-fluoro-19-methyl-20-oxa-3,4,8,9,23-pentaazapentacyclo[19.3.1.0^2,^6.08,^12.0^13,^18]pentacosa-1(24),2(6),4,9,11,13,15,17,21(25),22-decaene-11 carbonitrile] | 50 to 500 | < 50 | 50 to 500 | 0.1 to 50 | < 50 | < 50 | < 50 | > 500 | A (bin A for very high selectivity, ratio >30-fold) | A (bin A for very high selectivity, ratio >30-fold) | C (bin C for moderate selectivity, ratio ≥1) | A (bin A for very high selectivity, ratio >30-fold) | 0.1 to 50 | 0.1 to 50 |
| CCn1ncc2c1-c1cnc(N)c(c1)O[C@H](C)c1cc(F)ccc1-c1cc(C)nn1C2 [Example 4, (19R)-3-ethyl-16-fluoro-10,19-dimethyl-20-oxa-3,4,8,9,23-pentaazapentacyclo[19.3.1.0^2,^6.0^8,^12.0^13,^18]pentacosa-1(24),2(6),4,9,11,13,15,1 7,21 (25),22-decaen-22-amine] | 50 to 500 | < 50 | 50 to 500 | 0.1 to 50 | < 50 | < 50 | < 50 | 50 to 500 | A (bin A for very high selectivity, ratio >30-fold) | A (bin A for very high selectivity, ratio >30-fold) | C (bin C for moderate selectivity, ratio ≥1) | B (bin B for high selectivity, ratio >10-fold) | 0.1 to 50 | 0.1 to 50 |
| CCn1ncc2c1-c1cnc(N)c(c1)O[C@H](C)c1cc(F)ccc1-c1c(F)cnn1C2 [Example 8, (19R)-3-ethyl-11,16-difluoro-19-methyl-20-oxa-3,4,8,9,23-pentaazapentacyclo[19.3.1.0^2,^6.0^8,^12.0^13,^18]pentacosa-1(24),2(6),4,9,11,13,15,17,21(25),22-decaen-22-amine] | 50 to 500 | < 50 | > 500 | – | < 50 | < 50 | < 50 | > 500 | A (bin A for very high selectivity, ratio >30-fold) | – | C (bin C for moderate selectivity, ratio ≥1) | – | – | 0.1 to 50 |
| CCn1ncc2c1-c1cnc(N)c(c1)O[C@H](C)c1cc(F)ccc1-c1nccnc1C2 [Example 36, (20R)-3-ethyl-17-fluoro-20-methyl-21-oxa-3,4,9,12,24-pentaazapentacyclo[20.3.1.0^2,^6.0^8,^13.0^14,^19]hexacosa-1(25),2(6),4,8(13),9,11,14,16,18,22(26),23-undecaen-23-amine] | 0.1 to 50 | < 50 | 50 to 500 | – | < 50 | < 50 | < 50 | 50 to 500 | A (bin A for very high selectivity, ratio >30-fold) | – | B (bin B for high selectivity, ratio >10-fold) | – | – | 0.1 to 50 |
